Data on one compound can be found in patent publication US10934253B2, “Therapeutic compounds and methods” (UNIVERSITY OF TASMANIA, priority 2017, dated 2021).

Holding throughout (format): cell-based
For assay [1], the system named is HepG2 cells. Nature of the assay: Cell viability in the presence of a mitochondrial inhibitor (rotenone 10 μM). The following applies: Homo sapiens, HepG2, 48 h, read-out: CELL VIABILITY [%]. Here is the method: (§1) Cytoprotection of HepG2 cells by naphthoquinones was quantified in the presence of the mitochondrial toxin, rotenone. Briefly, HepG2 cells were seeded in 96-well plates at 5000 cells/well in DMEM with 0.3 g/l glucose, 10% FBS and Penicillin-Streptomycin-Glutamine. After overnight incubation under standard conditions, cells were treated with the test compounds (10 μM) for 2 days before cells were challenged with 1 μM rotenone in the presence of 10 μM test compounds in Hank's balanced salt solution (HBSS) for 6 hours. This was followed by post-incubation for an additional 18 hours with only 10 μM test compounds in HBSS. For measurement of cell viability, cells were washed with 100 μL PBS twice and then lysed using 40 μL lysis solution (4 mM EDTA, 0.2% Triton X-100) for 5 min at room temperature (RT) on an orbital shaker at 200 rpm. Then 10 μL of the lysate was mixed with 90 μL of enzyme-substrate mixture (as described above) in a white 96 well plate and luminescence was measured immediately using a plate-reader (Fluoroscan Ascent, Thermo Scientific). The data is expressed as % viability compared to the untreated (no-rotenone) control.
The cytoprotective effects of representative compounds of Formula (I) were further examined in vitro in response to rotenone toxicity at (10 μM). […] Cells were treated with the representative compounds of Formula (I) compounds (10 μM) for 2 days before cells were challenged with 10 μM rotenone.
Vitamin K, Menadione and Idebenone were used as comparative controls.

For assay [2], the system named is HepG2 cells. The assay is described as follows: Rescue of cell viability in the presence of a mitochondrial inhibitor (rotenone 1 μM). The following applies: Homo sapiens, HepG2. The procedure: as §1
The extent of protection of cellular viability against a rotenone challenge of representative compounds of Formula (I) is shown below in Table 5. Vitamin K, Menadione and Idebenone were used as comparative controls. DMSO was used as a control.

The subject of assay [3] is HepG2 cells. Nature of the assay: Acute ATP rescue assay (impaired mitochondrial function, rotenone). The following applies: Homo sapiens, 1 h; HepG2; 1 μM quinones with rotenone 10 μM, 60 minutes, glucose-free DMEM; % ATP compared to untreated (no-rotenone) control. The procedure: HepG2 cells were seeded at a density of 5000 cells per well in a 96-well plate and incubated for 24 hours in DMEM with 0.3 g/l glucose, 10% FBS and Penicillin-Streptomycin-Glutamine. Cells were treated with 1 μM quinones in presence or absence of rotenone (10 μM), for 60 minutes in glucose-free DMEM ATP levels were quantified using luminescence from the ATP-dependent enzymatic oxidation of luciferin by luciferase. Cells were lysed in a volume of 40 μl (4 mM EDTA, 0.2% Triton X-100) for five minutes at room temperature (RT) on an orbital shaker at 200 rpm. […] Luminescence was quantified immediately using a multimode plate reader (Fluoroscan Ascent, Thermo Scientific). ATP levels were standardized to protein levels using a commercial BCA assay (Protein DC; BioRad) and changes were calculated as percentage relative to levels of DMSO-treated control cells. Data is expressed as % ATP compared to the untreated (no-rotenone) control.
Vitamin K, menadione and idebenone were used as comparative controls. DMSO was used as a control.

For `COc1ccc(CCNC(=O)CCCC2=C(C)C(=O)c3ccccc3C2=O)cc1OC` [UTA #77, N-(3,4-dimethoxyphenethyl)-4-(3-methyl-1,4-naphthoquinone-2-yl)butanamide], the viability at 10 µM in assay [1] and in assay [2] was 95.9% throughout. The compound also showed an activity at 1 µM in assay [3] of 99.1%.

By viability is commonly meant a per cent measure of how many cells are alive, often set against a control.
